This note sets out measurements from patent US9278962B2 (Cytokinetics, Inc., priority 2011, dated 2016).

This assay relates to rabbit skeletal myofibrils (approximately 90% fast fibers). In words: Activation of fast skeletal myofibrils (PUMA coupled-enzyme ATPase assay, AC1.4). It counts as biochemical. As to conditions: concentration at which the compound increased enzymatic activity by 40%, calcium at pCa25. As to the method: Rabbit skeletal myofibrils were prepared based upon the method of Herrmann et al. (Biochem. 32(28):7255-7263(1993). Myofibrils were prepared from rabbit psoas muscle purchased from Pel-Freez Biologicals (Arkansas) within 2 days of ordering, stored on ice. Minced muscle was homogenized in 10 volumes of ice-cold “standard” buffer (50 mM Tris, pH 7.4, 0.1 M potassium acetate, 5 mM KCl, 2 mM DTT, 0.2 mM PMSF, 10 μM leupeptin, 5 μM pepstatin, and 0.5 mM sodium azide) containing 5 mM EDTA and 0.5% Triton X-100 using an Omni-Macro homogenizer. Myofibrils were recovered by low speed centrifugation (3000 rpm for 10 minutes) and washed 2 times in the Triton X-100 containing buffer to ensure removal of cellular membrane. Following the Triton washes, myofibrils were washed 3 times in “standard” buffer containing 2 mM magnesium acetate. A final wash in assay buffer (12 mM PIPES, pH 6.8, 60 mM KCl, 1 mM DTT) was performed and brought to 10% sucrose for flash freezing in liquid nitrogen and storage at −80° C.
Fast fiber activators were identified by measuring the enzymatic activity of muscle myofibril preparations using the proprietary PUMA™ (see, e.g., U.S. Pat. Nos. 6,410,254, 6,743,599, 7,202,051, and 7,378,254) assay system. Myofibril preparations consisted of rabbit skeletal muscle (approximately 90% fast fibers) that had been mechanically homogenized and washed with a detergent (triton X-100) to remove cellular membranes. This preparation retained all of the sarcomeric components in a native conformation and the enzymatic activity was still regulated by calcium. Compounds were tested using a myofibril suspension and a level of calcium sufficient to increase enzymatic activity of the myofibrils to 25% of their maximal rate (termed pCa25). Enzymatic activity was tracked via a pyruvate kinase and lactate dehydrogenase-coupled enzyme system. This assay regenerates myosin-produced ADP into ATP by oxidizing NADH, producing an absorbance change at 340 nm. The buffering system was 12 mM Pipes, 2 mM MgCl2, 1 mM DTT at pH 6.8 (PM12 buffer).
Using procedures similar to those described herein, utilizing reagents and intermediates commercially available (e.g., Sigma-Aldrich) or readily synthesized by one of skill in the art, the compounds in Table 2, Table 3, Table 4 and Table 5 were synthesized, characterized and tested. AC1.4 values were determined according to the procedure described in Example 6, and the reported median AC1.4 values are as follows: A=<1 uM; B=1-10 uM; C=10-20 uM; D=>20 uM.

Molecules are shown by their SMILES.

`NC(=O)c1ccc2nc(NCC3(c4ncccc4F)CCC3)sc2c1` [2-((1-(3-fluoropyridin-2-yl)cyclobutyl)methylamino)benzo[d] thiazole-6-carboxamide]: the “Mean AC1.4” value (Table 4) is “B (B=1-10 uM)”.

Consider `COc1cccnc1C1(CNc2nc3ccc(C#N)cc3s2)CCC1` [2-((1-(3-methoxypyridin-2-yl)cyclobutyl)methylamino)benzo[d] thiazole-6-carbonitrile], for which, where the note is “Table 4”, the “Mean AC1.4” value is recorded as “D (D=>20 uM)”.

Regarding `COc1cccnc1C1(CNc2nc3ccc(C(N)=O)cc3s2)CCC1` [2-((1-(3-methoxypyridin-2-yl)cyclobutyl)methylamino)benzo[d] thiazole-6-carboxamide], the “Mean AC1.4” value (Table 4) is on record as “B (B=1-10 uM)”.

Regarding `N#Cc1ccc2nc(NCC3(c4ccc(F)cc4)CCC3)sc2c1` [2-((1-(4-fluorophenyl)cyclobutyl)methylamino) benzo[d]thiazole-6-carbonitrile], for the setting “Table 4”, the “Mean AC1.4” value is “A (A=<1 uM)”.

Take `NC(=O)c1ccc2nc(NCC3(c4ccc(F)cc4)CCC3)sc2c1` [2-((1-(4-fluorophenyl)cyclobutyl)methylamino) benzo[d]thiazole-6-carboxamide]: the “Mean AC1.4” value (Table 4) is listed as “A (A=<1 uM)”.

Turning to `COc1ccc(C2(CNc3nc4ccc(C#N)cc4s3)CCC2)nc1` [2-((1-(5-methoxypyridin-2-yl)cyclobutyl)methylamino)benzo[d] thiazole-6-carbonitrile], the “Mean AC1.4” value (Table 4) is given as “D (D=>20 uM)”.

For `COc1ccc(C2(CNc3nc4ccc(C(N)=O)cc4s3)CCC2)nc1` [2-((1-(5-methoxypyridin-2-yl)cyclobutyl)methylamino)benzo[d] thiazole-6-carboxamide], the “Mean AC1.4” value (Table 4) is reported as “C (C=10-20 uM)”.

On to `COc1cccc(C2(CNc3nc4ccc(C#N)cc4s3)CCC2)n1` [2-((1-(6-methoxypyridin-2-yl)cyclobutyl)methylamino)benzo[d] thiazole-6-carbonitrile], for which, where the note is “Table 4”, the “Mean AC1.4” value was “B (B=1-10 uM)”.

Consider `COc1cccc(C2(CNc3nc4ccc(C(N)=O)cc4s3)CCC2)n1` [2-((1-(6-methoxypyridin-2-yl)cyclobutyl)methylamino)benzo[d] thiazole-6-carboxamide], for which, for the setting “Table 4”, the “Mean AC1.4” value is “B (B=1-10 uM)”.

For `N#Cc1ccc2nc(NCC3(c4ccccn4)CCC3)sc2c1` [2-((1-(pyridin-2-yl)cyclobutyl)methylamino)benzo[d] thiazole-6-carbonitrile], the “Mean AC1.4” value (Table 4) is “C (C=10-20 uM)”.

Consider `NC(=O)c1ccc2nc(NCC3(c4ccccn4)CCC3)sc2c1` [2-((1-(pyridin-2-yl)cyclobutyl)methylamino)benzo[d] thiazole-6-carboxamide], for which the “Mean AC1.4” value (Table 4) was “B (B=1-10 uM)”.

Consider `N#Cc1ccc2sc(NC[C@]3(c4ncccc4F)C[C@H](F)C3)nc2c1` [2-((3-fluoro-1-(3-fluoropyridin-2-yl)cyclobutyl)methylamino)benzo[d] thiazole-5-carbonitrile], for which, for the setting “Table 4”, the “Mean AC1.4” value is reported as “C (C=10-20 uM)”.

Consider `NC(=O)c1ccc2sc(NC[C@]3(c4ncccc4F)C[C@H](F)C3)nc2c1` [2-((3-fluoro-1-(3-fluoropyridin-2-yl)cyclobutyl)methylamino)benzo[d] thiazole-5-carboxamide], for which the “Mean AC1.4” value (Table 4) is on record as “C (C=10-20 uM)”.

`NC(=O)c1cccc2nc(NC[C@]3(c4ncccc4F)C[C@H](F)C3)sc12` [2-((3-fluoro-1-(3-fluoropyridin-2-yl)cyclobutyl)methylamino)benzo[d] thiazole-7-carboxamide]: the “Mean AC1.4” value (Table 4) is on record as “D (D=>20 uM)”.

Take `CC(C)(CNc1nc(CCCNC(=O)CN)ns1)c1ccc(F)cc1` [2-amino-N-[3-(5-{[2-(4-fluorophenyl)-2-methylpropyl]amino}(1,2,4-thiadiazol-3-yl))propyl]acetamide]: for the setting “Table 2”, the “Mean AC1.4” value is listed as “B (B=1-10 uM)”.

Take `CC(C)(CNc1nc(CNC(=O)CN)ns1)c1ccc(F)cc1` [2-amino-N-[(5-{[2-(4-fluorophenyl)-2-methylpropyl]amino}(1,2,4-thiadiazol-3-yl))methyl]acetamide]: the “Mean AC1.4” value (Table 2) is listed as “C (C=10-20 uM)”.

On to `N#Cc1ccc2nc(N)sc2c1` [2-aminobenzo[d]thiazole-6-carbonitrile], for which the “Mean AC1.4” value (Table 4) is listed as “D (D=>20 uM)”.

In the case of `CC(C)(CNc1nc(-c2ccc(C(N)=O)c(F)c2)ns1)c1ccc(F)cc1` [2-fluoro-4-(5-{[2-(4-fluorophenyl)-2-methylpropyl]amino}(1,2,4-thiadiazol-3-yl))benzamide], where the note is “Table 2”, the “Mean AC1.4” value is on record as “A (A=<1 uM)”.

Regarding `CC(C)(CNc1nc(-c2ccc(C#N)c(F)c2)ns1)c1ccc(F)cc1` [2-fluoro-4-(5-{[2-(4-fluorophenyl)-2-methylpropyl]amino}(1,2,4-thiadiazol-3-yl))benzenecarbonitrile], the “Mean AC1.4” value (Table 2) is “B (B=1-10 uM)”.

As to `CC(C)(CNc1nc(-c2ccc(F)c(C(N)=O)c2)ns1)c1ccc(F)cc1` [2-fluoro-5-(5-{[2-(4-fluorophenyl)-2-methylpropyl]amino}(1,2,4-thiadiazol-3-yl))benzamide], the “Mean AC1.4” value (Table 2) is “A (A=<1 uM)”.

For `CC(C)(CNc1nc(-c2ccc(F)c(C#N)c2)ns1)c1ccc(F)cc1` [2-fluoro-5-(5-{[2-(4-fluorophenyl)-2-methylpropyl]amino}(1,2,4-thiadiazol-3-yl))benzenecarbonitrile], the “Mean AC1.4” value (Table 2) is on record as “B (B=1-10 uM)”.

Turning to `CN(CCO)Cc1nsc(NCC(C)(C)c2ccc(F)cc2)n1` [2-{[(5-{[2-(4-fluorophenyl)-2-methylpropyl]amino}(1,2,4-thiadiazol-3-yl))methyl]methylamino}ethan-1-ol], the “Mean AC1.4” value (Table 2) was “D (D=>20 uM)”.

With `CC(C)(CNc1nc(CNCCO)ns1)c1ccc(F)cc1` [2-{[(5-{[2-(4-fluorophenyl)-2-methylpropyl]amino}-1,2,4-thiadiazol-3-yl)methyl]amino}ethan-1-ol], the “Mean AC1.4” value (Table 2) is on record as “D (D=>20 uM)”.

In the case of `NC(=O)c1cccc(-c2nc(NCCCc3ccccc3)ns2)c1` [3-(3-(3-phenylpropylamino)-1,2,4-thiadiazol-5-yl)benzamide], the “Mean AC1.4” value (Table 2) was “D (D=>20 uM)”.

As for `NC(=O)c1cccc(-c2nc(NCCc3ccccc3)ns2)c1` [3-(3-(phenethylamino)-1,2,4-thiadiazol-5-yl)benzamide], under “Table 2”, the “Mean AC1.4” value was “D (D=>20 uM)”.

Turning to `CC(C)(CNc1nsc(-c2cccc(C(N)=O)c2)n1)c1ccc(F)cc1` [3-(3-{[2-(4-Fluorophenyl)-2-methylpropyl]amino}-1,2,4-thiadiazol-5-yl)benzamide], the “Mean AC1.4” value (Table 2) is recorded as “B (B=1-10 uM)”.

Turning to `NC(=O)c1cccc(-c2nnc(NCC3(c4ncccc4F)CCC3)s2)c1` [3-(5-((1-(3-fluoropyridin-2-yl)cyclobutyl)methylamino)-1,3,4-thiadiazol-2-yl)benzamide], the “Mean AC1.4” value (Table 3) is “A (A=<1 uM)”.

As to `N#Cc1cccc(-c2nnc(NCC3(c4ncccc4F)CCC3)s2)c1` [3-(5-((1-(3-fluoropyridin-2-yl)cyclobutyl)methylamino)-1,3,4-thiadiazol-2-yl)benzonitrile], under “Table 3”, the “Mean AC1.4” value is recorded as “B (B=1-10 uM)”.

Turning to `Cc1ccc(C(N)=O)cc1-c1nnc(NC[C@]2(c3ncccc3F)C[C@H](F)C2)s1` [3-(5-((3-fluoro-1-(3-fluoropyridin-2-yl)cyclobutyl)methylamino)-1,3,4-thiadiazol-2-yl)-4-methylbenzamide], where the note is “Table 3”, the “Mean AC1.4” value is recorded as “A (A=<1 uM)”.

In the case of `Cc1ccc(C#N)cc1-c1nnc(NC[C@]2(c3ncccc3F)C[C@H](F)C2)s1` [3-(5-((3-fluoro-1-(3-fluoropyridin-2-yl)cyclobutyl)methylamino)-1,3,4-thiadiazol-2-yl)-4-methylbenzonitrile], where the note is “Table 3”, the “Mean AC1.4” value was “B (B=1-10 uM)”.

In the case of `N#Cc1cccc(-c2nnc(NC[C@]3(c4ncccc4F)C[C@@H](F)C3)s2)c1` [3-(5-(((cis)3-fluoro-1-(3-fluoropyridin-2-yl)cyclobutyl)methylamino)-1,3,4-thiadiazol-2-yl)benzonitrile], the “Mean AC1.4” value (Table 3) is “B (B=1-10 uM)”.

`NC(=O)c1cccc(-c2nnc(NC[C@]3(c4ncccc4F)C[C@@H](F)C3)s2)c1` [3-(5-(((cis)-3-fluoro-1-(3-fluoropyridin-2-yl)cyclobutyl)methylamino)-1,3,4-thiadiazol-2-yl)benzamide]: the “Mean AC1.4” value (Table 3) was “B (B=1-10 uM)”.

Regarding `N#Cc1cccc(-c2nnc(NC[C@]3(c4ncccc4F)C[C@H](F)C3)s2)c1` [3-(5-(((trans)3-fluoro-1-(3-fluoropyridin-2-yl)cyclobutyl)methylamino)-1,3,4-thiadiazol-2-yl)benzonitrile], the “Mean AC1.4” value (Table 3) was “B (B=1-10 uM)”.
